These results are taken from ChEMBL document CHEMBL5705908, “Structural and chemical insights into the covalent-allosteric inhibition of the protein kinase Akt” (Chem Sci, 2019).

In one assay the test system is KU-19-19. Description: Antiproliferative activity against human KU-19-19 cells assessed as reduction in cell viability incubated for 5 days by celltiter-glo assay. It is filed as functional, cell-based. Conditions: KU-19-19, 120 h. For orientation: ATP-based viability assays read luminescence as a measure of living cells.
The target in assay [1] is RAC-alpha serine/threonine-protein kinase (Homo sapiens) (UniProt P31749). Description: Covalent-allosteric inhibition of full length N-terminal his6-tagged AKT (2 to 446 residues) (unknown origin) expressed in Spodoptera frugiperda Sf9 cells assessed as kinact.
Assay [2] shares this target. Description: Covalent-allosteric inhibition of full length N-terminal his6-tagged AKT (2 to 446 residues) (unknown origin) expressed in Spodoptera frugiperda Sf9 cells assessed as kinact/ki ratio.
For assay [3] the target is unchanged. The assay can be described thus: Covalent-allosteric inhibition of full length N-terminal his6-tagged AKT (2 to 446 residues) (unknown origin) expressed in Spodoptera frugiperda Sf9 cells at 100 uM incubated for 1 hr by Mass spectrometry analysis.
A further assay has as its system AN3-CA. Description: Antiproliferative activity against human AN3-CA cells assessed as reduction in cell viability incubated for 5 days by celltiter-glo assay. It is filed as functional, cell-based. The note with it: 120 h.
For the next assay, the system named is BT-474. Description: Antiproliferative activity against human BT-474 cells assessed as reduction in cell viability incubated for 5 days by celltiter-glo assay. It is filed as functional, cell-based. Conditions: BT-474, 120 h.
The next assay concerns MCF7. The assay can be described thus: Antiproliferative activity against human MCF7 cells assessed as reduction in cell viability incubated for 5 days by celltiter-glo assay. It is filed as functional, cell-based. Conditions: MCF7, 120 h.

What is called EC50 is the midpoint of the concentration-response curve.

Activity calls are given as the source filed them. No cut-off for these calls is given here.

Chain of RAC-alpha serine/threonine-protein kinase (Homo sapiens) (P31749 whole entry, the tested form may be a part): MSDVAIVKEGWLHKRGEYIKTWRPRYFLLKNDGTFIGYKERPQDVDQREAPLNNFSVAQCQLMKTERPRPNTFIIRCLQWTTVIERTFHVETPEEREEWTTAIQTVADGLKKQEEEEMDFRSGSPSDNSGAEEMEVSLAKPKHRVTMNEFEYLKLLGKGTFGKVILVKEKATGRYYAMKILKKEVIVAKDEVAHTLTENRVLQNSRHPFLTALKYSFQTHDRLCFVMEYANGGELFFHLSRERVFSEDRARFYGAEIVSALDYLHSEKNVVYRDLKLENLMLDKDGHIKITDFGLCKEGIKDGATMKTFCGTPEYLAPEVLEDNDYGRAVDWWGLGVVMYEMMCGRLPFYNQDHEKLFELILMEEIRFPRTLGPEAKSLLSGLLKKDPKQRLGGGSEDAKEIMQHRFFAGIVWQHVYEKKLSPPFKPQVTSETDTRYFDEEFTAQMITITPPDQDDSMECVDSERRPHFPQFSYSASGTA

Take `CC(C)NC[C@@H](C(=O)N1CCN(c2ncnc3c2[C@H](C)C[C@H]3O)CC1)c1ccc(Cl)cc1` [IPATASERTIB]: in the assay on KU-19-19, the EC50 came to 24 µM.

As for `C=CC(=O)Nc1ccc(C(=O)NC2CCN(Cc3ccc(-c4nc5cc[nH]c(=O)c5cc4-c4ccccc4)cc3)CC2)cc1`, the Kinact in assay [1] stood at 0.042 min⁻¹. In addition, the Ratio in assay [2] came to 0.002 µM⁻¹ s⁻¹. The 50% effective concentration (EC50) in the assay on KU-19-19 came to 11.3 µM.

Take `C=CC(=O)Nc1ccccc1C(=O)NC1CCN(Cc2ccc(-c3nc4cc[nH]c(=O)c4cc3-c3ccccc3)cc2)CC1`: the Kinact in assay [1] was 0.138 min⁻¹. Moreover, the Ratio in assay [2] was 0.085 µM⁻¹ s⁻¹.

As to `C=CC(=O)Nc1cc(Br)cc(C(=O)NC2CCN(Cc3ccc(-c4nc5cc[nH]c(=O)c5cc4-c4ccccc4)cc3)CC2)c1`, the Kinact in assay [1] was 0.078 min⁻¹. Moreover, the Ratio in assay [2] was determined as 0.168 µM⁻¹ s⁻¹.

Consider `C=CC(=O)Nc1ccc2[nH]c(=O)n(C3CCN(Cc4ccc(-c5nc6cc[nH]c(=O)c6cc5-c5ccccc5)cc4)CC3)c2c1`, for which the inhibition entry in assay [3] is “Active”.

As for `C=CC(=O)Nc1ccc2c(c1)n(C1CCN(Cc3ccc(-c4nc5cc[nH]c(=O)c5cc4-c4ccccc4)cc3)CC1)c(=O)n2C`, the Kinact in assay [1] was 0.121 min⁻¹. Also, the Ratio in assay [2] was 0.19 µM⁻¹ s⁻¹. The inhibition result in assay [3] was “Active”.

As for `CN(C)C/C=C/C(=O)Nc1ccc2[nH]c(=O)n(C3CCN(Cc4ccc(-c5nc6cc[nH]c(=O)c6cc5-c5ccccc5)cc4)CC3)c2c1`, in assay [1], the Kinact came out at 0.05 min⁻¹. Moreover, the EC50 turned out to be 15.3 µM in the assay with AN3-CA, 12 µM with BT-474 and 20.3 µM in the assay on MCF7. The Ratio in assay [2] was found to be 0.025 µM⁻¹ s⁻¹.

For the compound `C=CC(=O)Nc1cccc(C(=O)NC2CCN(Cc3ccc(-c4nc5cc[nH]c(=O)c5cc4-c4ccccc4)cc3)CC2)c1`, the EC50 in the assay on KU-19-19 amounted to 14.9 µM.

Turning to `C=CC(=O)Nc1cccc(CNC2CCN(Cc3ccc(-c4nc5cc[nH]c(=O)c5cc4-c4ccccc4)cc3)CC2)c1`, the Kinact in assay [1] is 0.071 min⁻¹. In addition, the Ratio in assay [2] was determined as 0.004 µM⁻¹ s⁻¹.

Take `C=CC(=O)Nc1ccc(C(=O)NC2CCN(Cc3ccc(-c4nc5cc[nH]c(=O)c5cc4-c4ccccc4)cc3)CC2)c(F)c1`: in assay [1], the Kinact was determined as 0.085 min⁻¹. The Ratio in assay [2] stood at 0.014 µM⁻¹ s⁻¹.

In the case of `NC1(C(=O)N[C@@H](CCO)c2ccc(Cl)cc2)CCN(c2nc[nH]c3nccc2-3)CC1` [CAPIVASERTIB], the EC50 in the assay with KU-19-19 amounted to 20.9 µM.

On to `C=CC(=O)Nc1ccc(C(=O)NC2CCN(Cc3ccc(-c4nc5cc[nH]c(=O)c5cc4-c4ccccc4)cc3)CC2)s1`, for which the Kinact in assay [1] came out at 0.088 min⁻¹. In addition, the Ratio in assay [2] was determined as 0.038 µM⁻¹ s⁻¹.
